Assay results from patent US8153679B2, “Radiolabelled inhibitors of the glycine 1 transporter” (Hoffmann-La Roche Inc., priority 2008, dated 2012).

Key:
[1] = target: T1, GlyT1 transporter (Mus musculus, UniProt P28571); experiment: GlyT1 transporter inhibition in vitro (test method of WO2006/082001); assay type: cell-based; details: unlabelled compounds
T1 sequence (P28571 1-651 isoform P28571-2): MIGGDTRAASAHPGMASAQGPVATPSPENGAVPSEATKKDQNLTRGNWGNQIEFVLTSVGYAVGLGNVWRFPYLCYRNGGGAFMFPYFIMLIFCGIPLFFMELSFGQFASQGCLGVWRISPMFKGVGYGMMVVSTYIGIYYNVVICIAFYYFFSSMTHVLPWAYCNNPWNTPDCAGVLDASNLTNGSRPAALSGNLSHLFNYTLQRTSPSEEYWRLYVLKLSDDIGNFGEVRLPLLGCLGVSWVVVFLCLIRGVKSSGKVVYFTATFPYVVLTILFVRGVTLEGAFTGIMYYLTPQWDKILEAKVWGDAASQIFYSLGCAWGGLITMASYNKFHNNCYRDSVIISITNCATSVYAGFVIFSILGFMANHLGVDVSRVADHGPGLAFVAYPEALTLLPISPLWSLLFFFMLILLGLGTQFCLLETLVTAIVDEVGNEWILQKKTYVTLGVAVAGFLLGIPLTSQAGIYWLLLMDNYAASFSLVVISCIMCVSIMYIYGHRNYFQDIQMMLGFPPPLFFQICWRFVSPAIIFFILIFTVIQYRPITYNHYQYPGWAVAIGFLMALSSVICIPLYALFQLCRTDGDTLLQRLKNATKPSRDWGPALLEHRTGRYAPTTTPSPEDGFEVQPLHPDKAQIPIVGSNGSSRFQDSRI
From the text: The test method is described in WO2006/082001.

[2] = test system: glycine transporter 1 (GlyT1); experiment: In vivo PET imaging in the baboon; design: species or system baboon (papio anubis); details: intravenous 1 minute bolus, PET 0 to 90 minutes
Description: 1) PET imaging with [^11C-][2-Isopropoxy-5-methanesulfonyl-phenyl)-[5-(tetrahydro-pyran-4-yl)-1,3-dihydro-isoindol-2-yl]-methanone] and [^11C]-5-Methanesulfonyl-2-((S)-2,2,2-trifluoro-1-methyl-ethoxy)-phenyl]-[5-(tetrahydro-pyran-4-yl)-1,3-dihydro-isoindol-2-yl]-methanone
(§1) The experiments described below were carried out in male baboons (papio anubis). Animals were fasted for 12 hours prior to the PET study. Baboons were initially sedated intramuscularly with Ketamine hydrochloride with restraint dosages of 5-7 mg/kg to achieve a light plane of anesthesia and then maintained on continuous Propofol intravenous infusion @ […] (DIPRIVAN® Injectable Emulsion). Circulatory volume was maintained by infusion of isotonic saline. A femoral arterial catheter was inserted for blood sampling. Physiological vital signs including heart rate, ECG, blood pressure (Spacelabs Monitor, Issaquah, Wash., USA) and oxygen saturation (Nellcor OxiMax® N-600™ Pulse Oximeter, Pleasanton, Calif., USA) were continuously monitored throughout the study. The animal was positioned in an ECAT HRRT® brain PET scanner (High Resolution Research Tomograph, CPS Innovations, Inc., Knoxville, Tenn.). The head of the animal was fitted with a thermoplastic mask that was attached to a head holder for reproducible fixation. […]

[3] = target: T2, GlyT1 transporter (Rattus norvegicus, UniProt P28572); experiment: Autoradiographic studies in rat brain sections; assay type: binding; details: for distribution of the binding sites in rat brain sections: radiotracer 1 nM, 60 min, 37° C., high densities in thalamus, brainstem, pons, medulla oblungata, cerebellum, lower in striatum, cortex, hippocampus
T2 construct: Ten μm-thick sagittal sections were cut in a Cryostat and thaw-mounted on adhesion glass slides; from tissue; host or cells: rat brain, sagittal sections (male Wistar rats)
T2 sequence (P28572 1-638): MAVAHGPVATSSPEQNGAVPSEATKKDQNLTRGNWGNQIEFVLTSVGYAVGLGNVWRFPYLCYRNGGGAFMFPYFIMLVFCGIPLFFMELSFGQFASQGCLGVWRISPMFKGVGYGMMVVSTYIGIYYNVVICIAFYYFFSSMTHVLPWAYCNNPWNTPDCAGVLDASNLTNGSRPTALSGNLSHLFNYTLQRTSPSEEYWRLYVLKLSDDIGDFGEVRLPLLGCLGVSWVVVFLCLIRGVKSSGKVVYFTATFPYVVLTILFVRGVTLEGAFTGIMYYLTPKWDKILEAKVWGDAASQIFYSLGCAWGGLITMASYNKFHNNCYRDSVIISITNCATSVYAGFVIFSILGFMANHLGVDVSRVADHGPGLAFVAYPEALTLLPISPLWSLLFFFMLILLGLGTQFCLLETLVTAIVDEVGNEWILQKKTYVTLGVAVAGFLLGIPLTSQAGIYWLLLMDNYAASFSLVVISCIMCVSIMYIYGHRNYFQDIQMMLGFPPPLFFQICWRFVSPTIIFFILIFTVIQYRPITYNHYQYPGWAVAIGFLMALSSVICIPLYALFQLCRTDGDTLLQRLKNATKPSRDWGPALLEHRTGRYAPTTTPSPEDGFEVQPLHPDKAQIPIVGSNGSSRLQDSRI
From the text: Autoradiographic Studies in Rat Brain
The distribution of the binding sites of [^3H][5-Methanesulfonyl-2-((S)-2,2,2-trifluoro-1-methyl-ethoxy)-phenyl]-[5-(tetrahydro-pyran-4-yl)-1,3-dihydro-isoindol-2-yl]-methanone and [^3H][2-Isopropoxy-5-methanesulfonyl-phenyl)-[5-(tetrahydro-pyran-4-yl)-1,3-dihydro-isoindol-2-yl]-methanone] was investigated in the rat brain.
Male Wistar rats were used for these experiments. Rats were sacrificed; their brains were rapidly removed, frozen in dry ice powder. Ten μm-thick sagittal sections were cut in a Cryostat and thaw-mounted on adhesion glass slides. Brain sections were first incubated for 10 min. in Ringer buffer (NaCl 120 mM, KCl 5 mM, CaCl2 2 mM, MgCl2 1 mM, Tris-HCl 50 mM pH 7.4) at 37° C. and then for 60 min. in Ringer buffer at 37° C. containing either [^3H]5-Methanesulfonyl-2-((S)-2,2,2-trifluoro-1-methyl-ethoxy)-phenyl]-[5-(tetrahydro-pyran-4-yl)-1,3-dihydro-isoindol-2-yl-methanone or [^3H]-[2-Isopropoxy-5-methanesulfonyl-phenyl)-[5-(tetrahydro-pyran-4-yl)-1,3-dihydro-isoindol-2-yl]-methanone] at concentration 1 nM. For the evaluation of the non-specific-binding (NSB) of the radiotracer an additional group of sections was incubated with Ringer buffer containing the radiotracer and the reference GlyT1 inhibitor Org 24598 at the concentration 10 μM (60 in at 37° C.). At the end of the incubation, sections were rinsed 2×5 min. and 1×15 min. in ice-cold (4° C.) Ringer buffer and then rapidly dipped three times in distilled water at 4° C. Slide-mounted brain sections were dried under a flow of cold air and exposed together with [^3H]-microscale to a Fuji Imaging plate for 5 days. […] The total amount of radiotracer bound to the brain areas of interest (TB) were measured using the MCID image analysis program and expressed as fmol of bound radiotracer/mg of protein. The amount of [^3H]5-Methanesulfonyl-2-((S)-2,2,2-trifluoro-1-methyl-ethoxy)-phenyl]-[5-(tetrahydro-pyran-4-yl)-1,3-dihydro-isoindol-2-yl]-methanone specifically bound to the GlyT1 carrier (SB) was calculated according to the formula: SB=TB−NSB.

[4] = Preliminary pharmacokinetic experiments and modeling (blocker infusion); assay type: in vivo, baboon; details: intravenous infusion 0.2 mg/kg then 0.5 mg/kg
Description: Each animal received two sequential administrations of the radiotracer on the same day. The first administration of radiotracer was used to determine radiotracer baseline uptake. Following the baseline scan, the baboon received an intravenous administration of unlabeled [5-methanesulfonyl-2-((S)-2,2,2-trifluoro-1-methyl-ethoxy)-phenyl]-[5-(tetrahydro-pyran-4-yl)-1,3-dihydro-isoindol-2-yl]-methanone (blocker). The blocker infusion started 20 min before (the second) radiotracer injection. The blocker was first infused at dose=0.2 mg/kg. After 10 min, the flow rate was changed to deliver 0.5 mg/kg for the remainder 100 min of the study.

[5] = test system: GlyT1 transporter; experiment: PET imaging with pharmacological challenges (blocking of radiotracer uptake); assay type: in vivo, baboon (papio anubis); details: intravenous infusion 0.2 mg/kg, after 10 min 0.5 mg/kg for remainder 100 min; started 20 min before radiotracer
Description: as §1, with “fixation. A 6 min transmission scan with a 1 mCi Cs-137 point source was initially done for attenuation correction.” for “fixation.”

## CC(C)Oc1ccc(S(C)(=O)=O)cc1C(=O)N1Cc2ccc(C3CCOCC3)cc2C1 [(2-isopropoxy-5-methanesulfonyl-phenyl)-[5-(tetrahydro-pyran-4-yl)-1,3-dihydro-isoindol-2-yl]-methanone]
[1]
  IC50: 14 nM

## C[C@H](Oc1ccc(S([11CH3])(=O)=O)cc1C(=O)N1Cc2ccc(C3CCOCC3)cc2C1)C(F)(F)F [Example 2, [^11C-methyl]-[5-Methanesulfonyl-2-((S)-2,2,2-trifluoro-1-methyl-ethoxy)-phenyl]-[5-(tetrahydro-pyran-4-yl)-1,3-dihydro-isoindol-2-yl]-methanone]
[2]
  brain uptake of radiotracer: rapidly taken up in multiple brain areas

## CC(C)Oc1ccc(S([11CH3])(=O)=O)cc1C(=O)N1Cc2ccc(C3CCOCC3)cc2C1 [Example 4, [^11C-methyl]-(2-Isopropoxy-5-methanesulfonyl-phenyl)-[5-(tetrahydro-pyran-4-yl)-1,3-dihydro-isoindol-2-yl]-methanone]
[2]
  brain uptake of radiotracer: rapidly taken up in multiple brain areas

## CN(CC[C@@H](Oc1ccc(C(F)(F)F)cc1)c1ccccc1)CC(=O)O [Org 24598]
[3]; high concentrations of inhibitor (Org 24598 10 μM), radiotracers 1 nM
  effect of co-incubation on binding of both [3H] radiotracers to rat brain sections: completely abolished binding

## C[C@H](Oc1ccc(S(C)(=O)=O)cc1C(=O)N1Cc2ccc(C3CCOCC3)cc2C1)C(F)(F)F [[5-methanesulfonyl-2-((S)-2,2,2-trifluoro-1-methyl-ethoxy)-phenyl]-[5-(tetrahydro-pyran-4-yl)-1,3-dihydro-isoindol-2-yl]-methanone]
[1]
  IC50: 28 nM
[4]
  plasma levels during the PET scan time interval: constant plasma levels
[5]
  effect of pretreatment with cold blocker on specific uptake of both [11C] radiotracers in brain: completely blocked the specific uptake

## [3H-methyl]-[5-Methanesulfonyl-2-((S)-2,2,2-trifluoro-1-methyl-ethoxy)-phenyl]-[5-(tetrahydro-pyran-4-yl)-1,3-dihydro-isoindol-2-yl]-methanone [Example 1]
[3]
  distribution of the binding sites in rat brain sections: corresponded to the known distribution of the GlyT1 transporter

## [^3H-methyl]-(2-Isopropoxy-5-methanesulfonyl-phenyl)-[5-(tetrahydro-pyran-4-yl)-1,3-dihydro-isoindol-2-yl]-methanone [Example 3]
[3]
  distribution of the binding sites in rat brain sections: corresponded to the known distribution of the GlyT1 transporter
